Experiments:
Format in all cases: functional
Bactrocera oleae [1] = assay: Insecticidal activity against Bactrocera oleae assessed as insect mortality at 180 mg Ai/L applied through oral ingestion measured after 24 hr (reference value: 0%)
Bactrocera oleae [2] = assay: Insecticidal activity against Bactrocera oleae assessed as insect mortality at 180 mg Ai/L applied through oral ingestion measured after 7 days (reference value: 2.5 +/- 2.5%); details: 168 h
Bactrocera oleae [3] = assay: Insecticidal activity against Bactrocera oleae assessed as insect mortality at 180 mg Ai/L applied through residual contact on glass surfaces measured after 15 days (reference value: 45.8 +/- 16.3%); details: 360 h
Bactrocera oleae [4] = assay: Insecticidal activity against Bactrocera oleae assessed as insect survival lifespan at 180 mg Ai/L applied through oral ingestion (reference value: 79.7 +/- 12.2 days)
Bactrocera oleae [5] = assay: Insecticidal activity against Bactrocera oleae assessed as insect mortality at 180 mg Ai/L applied through residual contact on glass surfaces measured after 7 days (reference value: 4.0 +/- 4.0%); details: 168 h
Bactrocera oleae [6] = assay: Insecticidal activity against Bactrocera oleae assessed as insect mortality at 180 mg Ai/L applied through residual contact on glass surfaces measured after 24 hr (reference value: 2.0 +/- 2.0%)
Bactrocera oleae [7] = assay: Insecticidal activity against Bactrocera oleae assessed as insect mortality at 180 mg Ai/L applied through oral ingestion measured after 15 days (reference value: 2.5 +/- 2.5%); details: 360 h
Bactrocera oleae [8] = assay: Insecticidal activity against Bactrocera oleae assessed as insect mortality after 24 hr
Bactrocera oleae [9] = assay: Insecticidal activity against Bactrocera oleae assessed as insect mortality at 96 mg Ai/L applied through oral ingestion measured after 7 days (reference value: 2.5 +/- 2.5%); details: 168 h
Bactrocera oleae [10] = assay: Insecticidal activity against Bactrocera oleae assessed as insect mortality at 96 mg Ai/L applied through oral ingestion measured after 15 days (reference value: 2.5 +/- 2.5%); details: 360 h
Bactrocera oleae [11] = assay: Insecticidal activity against Bactrocera oleae assessed as insect mortality at 96 mg Ai/L applied through residual contact on glass surfaces measured after 15 days (reference value: 45.8 +/- 16.3%); details: 360 h
Bactrocera oleae [12] = assay: Insecticidal activity against Bactrocera oleae assessed as insect survival lifespan at 96 mg Ai/L applied through oral ingestion (reference value: 79.7 +/- 12.2 days)
Bactrocera oleae [13] = assay: Insecticidal activity against Bactrocera oleae assessed as insect mortality at 96 mg Ai/L applied through residual contact on glass surfaces measured after 24 hr (reference value: 2.0 +/- 2.0%)
Bactrocera oleae [14] = assay: Insecticidal activity against Bactrocera oleae assessed as insect mortality at 96 mg Ai/L applied through residual contact on glass surfaces measured after 7 days (reference value: 4.0 +/- 4.0%); details: 168 h
Bactrocera oleae [15] = assay: Insecticidal activity against Bactrocera oleae assessed as insect mortality at 96 mg Ai/L applied through oral ingestion measured after 24 hr (reference value: 0%)
Anastrepha suspensa [16] = assay: Insecticidal activity against Anastrepha suspensa assessed as reduction in egg viability administered through diet ingestion measured after 8 to 10 days
Anastrepha suspensa [17] = assay: Insecticidal activity against Anastrepha suspensa assessed as insect mortality administered through diet ingestion measured after 12 to 14 days

| Structure (SMILES) | mortality at 180 µg/mL (Bactrocera oleae [1]) [%] | mortality at 180 µg/mL (Bactrocera oleae [2]) [%] | mortality at 180 µg/mL (Bactrocera oleae [3]) [%] | Survival (Bactrocera oleae [4]) [days] | mortality at 180 µg/mL (Bactrocera oleae [5]) [%] | mortality at 180 µg/mL (Bactrocera oleae [6]) [%] | mortality at 180 µg/mL (Bactrocera oleae [7]) [%] | mortality (Bactrocera oleae [8]) [%] | mortality at 96 µg/mL (Bactrocera oleae [9]) [%] | mortality at 96 µg/mL (Bactrocera oleae [10]) [%] | mortality at 96 µg/mL (Bactrocera oleae [11]) [%] | Survival (Bactrocera oleae [12]) [days] | mortality at 96 µg/mL (Bactrocera oleae [13]) [%] | mortality at 96 µg/mL (Bactrocera oleae [14]) [%] | mortality at 96 µg/mL (Bactrocera oleae [15]) [%] | Activity (Anastrepha suspensa [16]) [%] | mortality (Anastrepha suspensa [17]) [%] |
| --- | --- | --- | --- | --- | --- | --- | --- | --- | --- | --- | --- | --- | --- | --- | --- | --- | --- |
| CCc1ccc(C(=O)NN(C(=O)c2cc(C)cc(C)c2)C(C)(C)C)cc1 [TEBUFENOZIDE] | 0 | 0 | 58 | 66.9 | 18 | 0 | 0 | – | – | – | – | – | – | – | – | – | – |
| CC[C@H]1CCC[C@H](O[C@H]2CC[C@H](N(C)C)[C@@H](C)O2)[C@@H](C)C(=O)C2=C[C@@H]3[C@@H](C=C(C)[C@@H]4C[C@@H](O[C@@H]5O[C@@H](C)[C@H](OC)[C@@H](OC)[C@H]5OC)C[C@@H]34)[C@@H]2CC(=O)O1.CC[C@H]1CCC[C@H](O[C@H]2CC[C@H](N(C)C)[C@@H](C)O2)[C@@H](C)C(=O)C2=C[C@@H]3[C@@H](C=C[C@@H]4C[C@@H](O[C@@H]5O[C@@H](C)[C@H](OC)[C@@H](OC)[C@H]5OC)C[C@@H]34)[C@@H]2CC(=O)O1 | – | – | – | – | – | – | – | 62 | – | – | – | – | – | – | – | – | – |
| COc1cccc(C(=O)NN(C(=O)c2cc(C)cc(C)c2)C(C)(C)C)c1C [METHOXYFENOZIDE] | – | – | – | – | – | – | – | – | 2.5 | 2.5 | 49.1 | 8.6 | 0 | 0 | 2.5 | – | – |
| CC(C)(C)N(NC(=O)c1ccccc1)C(=O)c1ccccc1 [RH-5849] | 0 | 31.8 | 100 | 8.7 | 86 | 0 | 98.2 | – | – | – | – | – | – | – | – | 60 | >75 |
